# In PMC4865847, “Putative histidine kinase inhibitors with antibacterial effect against multi-drug resistant clinical isolates identified by in vitro and in silico screens” (Scientific Reports, 2016):
# Read-outs that look alike come from different tables or passages of the source.
# Legend:
# E. coli PhoR (PhoR^E) = target: T1, E. coli PhoR (PhoR^E) (Escherichia coli, UniProt P08400); experiment: In vitro autophosphorylation kinase assay with γ-32P-ATP, PhoR^E; type: biochemical; settings: for IC50: autophosphorylation, one time point (30 sec), 10% DMSO; for inhibition at 2000 µM: 2 mM, 30 sec, compared to negative control
# T1 construct: The catalytic portion (DHp and CA domain) of E. coli PhoR (PhoR^E); made in house; host or cells: E. coli RIL
# T1 sequence (P08400 210-425): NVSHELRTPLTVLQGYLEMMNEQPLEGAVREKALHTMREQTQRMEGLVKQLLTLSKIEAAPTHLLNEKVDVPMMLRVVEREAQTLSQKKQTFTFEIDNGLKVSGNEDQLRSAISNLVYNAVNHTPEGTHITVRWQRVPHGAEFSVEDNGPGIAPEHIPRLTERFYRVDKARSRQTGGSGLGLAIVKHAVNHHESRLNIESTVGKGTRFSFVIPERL
# Experimental: (§1) To evaluate the inhibitory capacity of selected hits from DSF, SBVS and LBSS in vitro autophosphorylation kinase assays with γ-^32P-ATP were performed as previously described. Ligands were dissolved in 100% DMSO. […] Controls lacking ligands contained an equal concentration of DMSO. Inhibition of autophosphorylation was determined by incubating 0.12 mg/ml (≈4 μM) HK and up to 20 mM fragment in kinase buffer (50 mM Tris HCl, pH 8.5, 50 mM KCl, 5 mM MgCl2, 0.5 mM EDTA and 0.1 mM DTT). Autophosporylation reactions were initiated by addition of 0.1 μCi/μl γ-^32P-ATP containing from 0.03 to 0.06 μM ATP (final concentrations). Autophosphorylation was quenched with 2xSDS-PAGE sample buffer supplemented with 50 mM EDTA. […] After electrophoresis, the bottoms of the gels were removed to lower the background from the unincorporated radiolabeled ATP. Gels were dried without staining on a Bio-Rad Gel Air drying system and the phosphorylated protein was quantified by phosphor-imaging. Prism GraphPad was used for curve fitting and statistical analysis.
# S. pneumoniae WalK = target: T2, S. pneumoniae WalK (Streptococcus pneumoniae, UniProt Q8DPL8); experiment: In vitro autophosphorylation kinase assay with γ-32P-ATP, WalK; type: biochemical; settings: autophosphorylation, one time point (30 sec), 10% DMSO
# T2 construct: WalK (amino acids from 208 to 449); N-terminal His6-3C site of vector pOPINF (own knowledge of the vector); made in house; host or cells: E. coli RIL
# T2 sequence (Q8DPL8 208-449): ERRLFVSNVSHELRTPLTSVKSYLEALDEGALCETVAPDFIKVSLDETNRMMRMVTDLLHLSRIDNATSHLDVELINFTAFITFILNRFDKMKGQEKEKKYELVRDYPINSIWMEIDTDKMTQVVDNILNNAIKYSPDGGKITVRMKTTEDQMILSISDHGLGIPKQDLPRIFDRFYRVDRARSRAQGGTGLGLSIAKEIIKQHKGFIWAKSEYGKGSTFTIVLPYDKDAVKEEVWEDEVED
# Experimental: as §1
# Staphylococcus aureus = experiment: Antibacterial susceptibility testing (MIC/MBC), S. aureus; type: cell-based; settings: for MIC / MBC: Staphylococcus aureus
# Experimental: (§2) Minimal inhibitory concentrations (MICs) were determined following a standard double-dilution method. […] For S. pneumoniae MICs were determined by adapting the standard double-dilution method to anaerobic conditions and of this microorganism (use of Todd Hewitt Yeast extract with 200 U/mL of catalase and continuous monitoring of growth).
# [1] = test system: Staphylococcus epidermidis; experiment: Antibacterial susceptibility testing (MIC/MBC), S. epidermidis; type: cell-based; settings: Staphylococcus epidermidis
# Experimental: as §2
# Escherichia coli = experiment: Antibacterial susceptibility testing (MIC/MBC), E. coli; type: cell-based; settings: Escherichia coli; for MIC: read-out: MIC E. coli CFT 073
# Experimental: as §2
# [2] = Solubility in kinase buffer; type: physicochemical; settings: kinase buffer in the presence of 10% DMSO
# S. aureus PhoR (PhoR^S) = S. aureus PhoR (PhoR^S) (Staphylococcus aureus, UniProt Q2FXN7); experiment: In vitro autophosphorylation kinase assay with γ-32P-ATP, PhoR^S; type: biochemical; settings: autophosphorylation, one time point (30 sec), 10% DMSO
# Chain of S. aureus PhoR (PhoR^S) (Q2FXN7 entry or part of it): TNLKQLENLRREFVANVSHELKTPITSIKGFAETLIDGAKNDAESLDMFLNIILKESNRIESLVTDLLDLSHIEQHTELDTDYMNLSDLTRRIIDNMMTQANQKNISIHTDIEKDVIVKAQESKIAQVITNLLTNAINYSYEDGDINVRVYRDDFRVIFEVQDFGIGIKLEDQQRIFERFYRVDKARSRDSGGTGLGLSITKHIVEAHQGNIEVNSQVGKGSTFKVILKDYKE
# Experimental: (§3) To evaluate the inhibitory capacity of selected hits from DSF, SBVS and LBSS in vitro autophosphorylation kinase assays with γ-^32P-ATP were performed as previously described. Ligands were dissolved in 100% DMSO. […] Controls lacking ligands contained an equal concentration of DMSO. Inhibition of autophosphorylation was determined by incubating 0.12 mg/ml (≈4 μM) HK and up to 20 mM fragment in kinase buffer (50 mM Tris HCl, pH 8.5, 50 mM KCl, 5 mM MgCl2, 0.5 mM EDTA and 0.1 mM DTT). Autophosporylation reactions were initiated by addition of 0.1 μCi/μl γ-^32P-ATP containing from 0.03 to 0.06 μM ATP (final concentrations). Autophosphorylation was quenched with 2xSDS-PAGE sample buffer supplemented with 50 mM EDTA. Samples were applied without heating to 15% (w/v) Tris-glycine SDS-polyacrylamide gels. After electrophoresis, the bottoms of the gels were removed to lower the background from the unincorporated radiolabeled ATP. Gels were dried without staining on a Bio-Rad Gel Air drying system and the phosphorylated protein was quantified by phosphor-imaging. Prism GraphPad was used for curve fitting and statistical analysis.
# T. maritima HK853 = target: T3, T. maritima HK853 (Thermotoga maritima, UniProt Q9WZV7); experiment: In vitro autophosphorylation kinase assay with γ-32P-ATP, HK853; type: biochemical
# T3 sequence (Q9WZV7 232-489): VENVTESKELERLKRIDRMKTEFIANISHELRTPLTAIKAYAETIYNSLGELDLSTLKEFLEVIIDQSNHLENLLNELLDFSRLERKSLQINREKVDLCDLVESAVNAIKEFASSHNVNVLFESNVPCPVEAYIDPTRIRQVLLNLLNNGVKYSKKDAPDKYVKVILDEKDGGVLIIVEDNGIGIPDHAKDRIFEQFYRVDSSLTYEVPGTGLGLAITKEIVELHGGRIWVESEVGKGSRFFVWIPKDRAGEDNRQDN
# Experimental: as §3
# [3] = DSM20231, strain DSM 20231, read-out: MIC S. aureus DSM 20231
# [4] = DSM20044, strain DSM 20044, read-out: MIC S. epidermidis DSM 20044
# [5] = DSM20231, read-out: MBC S. aureus DSM 20231
# [6] = DSM20231, read-out: MIC S. aureus DSM 20231
# [7] = DSM20044, read-out: MIC S. epidermidis DSM 20044
SMILES,IC50 (E. coli PhoR (PhoR^E); IC50 PhoR^E),IC50 (S. pneumoniae WalK; IC50 WalK),MIC (Staphylococcus aureus; [3]),"MIC [1, 4]",MIC (Escherichia coli; strain CFT 073),IC50 (S. aureus PhoR (PhoR^S); IC50 PhoR^S),IC50 (T. maritima HK853),also measured
Brc1ccc(C2=CSC3=NCCN23)cc1 [F1.7],> 2 mM,> 2 mM,> 500 µg/mL,> 500 µg/mL,> 500 µg/mL,,,
COc1ccc(-c2csc(N)n2)cc1OC [F1.9],> 2 mM,> 2 mM,> 500 µg/mL,> 500 µg/mL,> 500 µg/mL,,,
CC(C)(C)c1ccc(OCc2c[nH]cn2)cc1 [F1.10],> 2 mM,> 2 mM,> 500 µg/mL,> 500 µg/mL,> 500 µg/mL,,,
Nc1ccc2c(c1)[nH]c1ccccc12 [F2.1],,,,,,,,"inhibition at 2000 µM (E. coli PhoR (PhoR^E)): > 50%; IC50 (E. coli PhoR (PhoR^E); read-out: IC50 PhoR^E): 0.24 mM; IC50 (S. pneumoniae WalK; read-out: IC50 WalK): > 2 mM; MBC (Staphylococcus aureus; [5]): > 500 µg/mL; MIC (Staphylococcus aureus; [6]): 8 µg/mL; MIC [1, 7]: > 500 µg/mL; MIC (Escherichia coli): > 500 µg/mL; solubility in kinase buffer [2]: good solubility"
O=c1c2ccccc2[nH]c2ccc(O)cc12 [F2.2],< 2 mM,> 2 mM,> 500 µg/mL,> 500 µg/mL,> 500 µg/mL,,,inhibition at 2000 µM (E. coli PhoR (PhoR^E)): > 50%
c1ccc2c(c1)[nH]c1ccccc12 [F2.5],,,,,,,,"IC50 (E. coli PhoR (PhoR^E); read-out: IC50 PhoR^E): > 2 mM; IC50 (S. pneumoniae WalK; read-out: IC50 WalK): > 2 mM; MIC (Staphylococcus aureus; [6]): > 500 µg/mL; MIC [1, 7]: > 500 µg/mL; MIC (Escherichia coli): > 500 µg/mL"
Cn1c2ccccc2c2ccccc21 [F2.6],,,,,,,,"IC50 (E. coli PhoR (PhoR^E); read-out: IC50 PhoR^E): > 2 mM; IC50 (S. pneumoniae WalK; read-out: IC50 WalK): > 2 mM; MIC (Staphylococcus aureus; [6]): > 500 µg/mL; MIC [1, 7]: > 500 µg/mL; MBC (Escherichia coli; read-out: MBC E. coli CFT 073): 500 µg/mL; MIC (Escherichia coli): > 500 µg/mL"
c1ccc2[nH]ccc2c1 [F2.7],,,,,,,,"IC50 (E. coli PhoR (PhoR^E); read-out: IC50 PhoR^E): > 2 mM; IC50 (S. pneumoniae WalK; read-out: IC50 WalK): > 2 mM; MBC (Staphylococcus aureus; [5]): > 500 µg/mL; MIC (Staphylococcus aureus; [6]): 500 µg/mL; MIC [1, 7]: > 500 µg/mL; MIC (Escherichia coli): 500 µg/mL"
CCc1ccc2[nH]c3ccccc3c2c1 [F2.9],< 2 mM,> 2 mM,> 500 µg/mL,> 500 µg/mL,> 500 µg/mL,,,"inhibition at 2000 µM (E. coli PhoR (PhoR^E)): > 50%; MBC (Staphylococcus aureus; DSM20231, strain DSM 20231, read-out: MBC S. aureus DSM 20231): > 500 µg/mL"
O=C(CCN1c2ccccc2Sc2ccccc21)OCc1cc(=O)n2ccsc2n1 [S1],> 5 mM,> 5 mM,> 500 µg/mL,> 500 µg/mL,> 500 µg/mL,> 5 mM,> 5 mM,
CC(OC(=O)c1cccc(S(=O)(=O)N2CCc3ccccc3C2)c1)C(=O)NC(N)=O (centres unmarked) [S2],> 5 mM,> 5 mM,> 500 µg/mL,> 500 µg/mL,> 500 µg/mL,> 5 mM,> 5 mM,
CC(NC(=O)C1CC(=O)N(c2ccccc2)C1)c1cccc(NC(=O)c2ccccc2)c1 (centres unmarked) [S3],> 5 mM,> 5 mM,> 500 µg/mL,> 500 µg/mL,> 500 µg/mL,> 5 mM,> 5 mM,
CNC(=O)NC(=O)CSc1nc2sc3c(c2c(=O)n1-c1ccccc1F)CCCC3 [S4],> 5 mM,> 5 mM,> 500 µg/mL,> 500 µg/mL,> 500 µg/mL,> 5 mM,> 5 mM,
c1ccc2cc(CNc3ccc4c(c3)OCCO4)ccc2c1 [S7],> 5 mM,> 5 mM,> 500 µg/mL,> 500 µg/mL,> 500 µg/mL,,> 5 mM,IC50 (S. aureus PhoR (PhoR^S); read-out: IC50 PhoR^S): < 5 mM; MBC S. aureus DSM 20231 (Staphylococcus aureus; strain DSM 20231): > 500 µg/mL
CC(NCc1cccc2ccccc12)c1ccc(F)cc1 (centres unmarked) [S8],> 5 mM,> 5 mM,> 500 µg/mL,> 500 µg/mL,> 500 µg/mL,,> 5 mM,IC50 (S. aureus PhoR (PhoR^S); read-out: IC50 PhoR^S): < 5 mM
CC(NCc1cccc2ccccc12)c1cccc(F)c1 (centres unmarked) [S9],> 5 mM,> 5 mM,> 500 µg/mL,> 500 µg/mL,> 500 µg/mL,> 5 mM,> 5 mM,
CC(NCc1cccc(F)c1)c1ccc2ccccc2c1 (centres unmarked) [S10],> 5 mM,> 5 mM,> 500 µg/mL,> 500 µg/mL,> 500 µg/mL,> 5 mM,> 5 mM,
